Assay results reported in US9662341B2, “Multifunctional topical formulation for the treatment of acne vulgaris and other skin conditions” (Kantian Sciences Corporation, priority 2011, dated 2017).
Where two headings read alike, the source gives them in different places.

Experiments:
E. coli = test: Kill of E. coli within 30 seconds of contact (inventor's earlier studies); assay type: cell-based
acne = conditions: cited from earlier work
[1] = HONO form in ratios of >~2:1 acid/salt
[2] = Percentage of mandelic acid in acid and salt forms at varying pH values; assay type: physicochemical
From the text: The same consideration of activity vs. acid:salt forms applies to mandelic acid, where the antimicrobial activity of an aqueous solution containing this material is strongly dependent on the pH of the system.

## CC(O)C(=O)O (centres unmarked) [lactic acid]
E. coli
  E. coli killed relative to malic acid: 500 times

## O=NO [Nitrite]
pH 1.5
  Nitrite %: 1.6%
pH 2.0
  Nitrite %: 4.8%
pH 2.3
  Nitrite %: 9.1%
pH 2.6
  Nitrite %: 16.7%
pH 2.8
  Nitrite %: 24.0%
pH 3.0
  Nitrite %: 33.3%
pH 3.3
  Nitrite %: 50.0%
pH 3.5
  Nitrite %: 61.2%
pH 4.0
  Nitrite %: 83.4%
pH 4.5
  Nitrite %: 94.0%
pH 5.0
  Nitrite %: 98.0%

## O=C(O)CCCCCCCC(=O)O [azelaic acid]
acne; after starting topical application
  Time for acne lesions to start disappearing: one to two months
acne; benzoyl peroxide, tretinoin, antibiotics as comparators
  Efficacy versus other topical Rx formulations: works as well as other topical Rx formulations

## O=NO [nitrous acid]
pH 1.5
  Nitrous Acid %: 98.4%
pH 2.0
  Nitrous Acid %: 95.2%
pH 2.3
  Nitrous Acid %: 90.9%
pH 2.6
  Nitrous Acid %: 83.3%
pH 2.8
  Nitrous Acid %: 76.0%
pH 3.0
  Nitrous Acid %: 66.7%
pH 3.3
  Nitrous Acid %: 50.0%
pH 3.5
  Nitrous Acid %: 38.8%
pH 4.0
  Nitrous Acid %: 16.6%
pH 4.5
  Nitrous Acid %: 6.0%
pH 5.0
  Nitrous Acid %: 2.0%
[1]
  longer-range stability of nitrous acid systems: significantly diminished

## O=C(O)[C@H](O)c1ccccc1 [Mandelate]
[2]; pH 2.46
  Mandelate %: 10%
[2]; pH 2.81
  Mandelate %: 20%
[2]; pH 3.04
  Mandelate %: 30%
[2]; pH 3.23
  Mandelate %: 40%
[2]; pH 3.41
  Mandelate %: 50%
[2]; pH 3.59
  Mandelate %: 60%
[2]; pH 3.78
  Mandelate %: 70%
[2]; pH 4.01
  Mandelate %: 80%

## O=C(O)C(O)c1ccccc1 (centres unmarked) [mandelic acid]
E. coli
  E. coli killed relative to malic acid: 1.5 million
E. coli; same conditions
  E. coli killed relative to lactic acid: 3000 times
[2]; pH 2.46
  Mandelic Acid %: 90%
[2]; pH 2.81
  Mandelic Acid %: 80%
[2]; pH 3.04
  Mandelic Acid %: 70%
[2]; pH 3.23
  Mandelic Acid %: 60%
[2]; pH 3.41
  Mandelic Acid %: 50%
[2]; pH 3.59
  Mandelic Acid %: 40%
[2]; pH 3.78
  Mandelic Acid %: 30%
[2]; pH 4.01
  Mandelic Acid %: 20%
